# Patent US9802927B2, “Oxadiazine compounds and methods of use thereof” (Denali Therapeutics, Inc., priority 2015, dated 2017)
# Test system: Aβ42
# Test: In vitro cell screening assay in H4 cells expressing human APP751: Aβ42 by sandwich ELISA
# Format: cell-based
# Conditions: compounds 0.003-10 μM, incubated overnight (16-18 h), sandwich ELISA of supernatant
# Description: Human neuroglioma H4 cells were transfected with a pcDNA3.1 plasmid expressing human wild type APP751 cDNA and a stable cell line was generated using G418 selection. Cells were plated at 15,000 cells/well in Costar 96-well plates and placed at 37° C. and 5% CO2. Six hours after plating, cells were washed three times with Pro293™ chemically defined medium, followed by addition of compounds (0.003-10 μM, final DMSO concentration of 0.33%). Plates were incubated overnight (16-18 h) and supernatant was removed for quantification of Aβ peptides by sandwich ELISA. Cytotoxicity was evaluated using Cell-Titer 96W AQueous One Solution Cell Proliferation Assay according to the manufacturer's protocol.
# Aβ peptide levels were quantified by sandwich ELISA. 96-well plates were coated with C-terminal specific Aβ antibodies recognizing either Aβ37, Aβ38, Aβ40, Aβ42, Aβ43 or a N-terminal specific Aβ antibody to detect Aβ 1-x. Plates were then blocked overnight at 4° C. with 1% bovine serum albumin (BSA) in PBS-T. Plates were washed and 100 μl of cultured cell supernatant or synthetic Aβ peptide standards and a detection antibody (4G8-HRP) were applied to the blocked plate and incubated overnight at 4° C. The next day, wells were washed before the addition of detection substrate (TMB peroxidase). Plates were then read for absorbance at 450 nm on a Molecular Devices SpectraMax M5e Microplate Reader.
# Compound-treated samples were normalized to samples treated with DMSO alone (no inhibition) and to samples treated with DAPT. EC50 values were calculated from values reported as percent of DMSO controls using nonlinear regression, based on a sigmoidal dose response (variable slope) model. GraphPAD software from Prism used for calculation.
Compound,EC50 [nM],EC50 (Homo sapiens) [nM]
"COc1nc(C2=NOCC(c3cc4ccccc4o3)N2)ccc1-n1cnc(C)c1 (single isomer, unassigned; (-)) [Example 186A, (−)-5-(benzofuran-2-yl)-3-(6-methoxy-5-(4-methyl-1H-imidazol-1-yl)pyridin-2-yl)-5,6-dihydro-4H-1,2,4-oxadiazine]",1170,–
"COc1cccc(C2CON=C(c3ccc(-n4cnc(C)c4)c(OC)n3)N2)c1 (single isomer, unassigned; (-)) [Example 145A, (−)-3-(6-methoxy-5-(4-methyl-1H-imidazol-1-yl)pyridin-2-yl)-5-(3-methoxyphenyl)-5,6-dihydro-4H-1,2,4-oxadiazine]",2670,–
"COc1nc(C2=NOCC(c3cc4ccc(C(F)(F)F)cc4o3)N2)ccc1-n1cnc(C)c1 (single isomer, unassigned; (-)) [Example 260A, (−)-3-(6-methoxy-5-(4-methyl-1H-imidazol-1-yl)pyridin-2-yl)-5-(6-(trifluoromethyl)benzofuran-2-yl)-5,6-dihydro-4H-1,2,4-oxadiazine]",2320,–
"COc1nc(C2=NOCC(c3cn(C)c4ncccc34)N2)ccc1-n1cnc(C)c1 (single isomer, unassigned; (-)) [Example 195A, (−)-3-(6-methoxy-5-(4-methyl-1H-imidazol-1-yl)pyridin-2-yl)-5-(1-methyl-1H-pyrrolo [2,3-b]pyridin-3-yl)-5,6-dihydro-4H-1,2,4-oxadiazine]",2110,–
"COc1nc(C2=NOCC(c3cn(C)c4ccc(C5CC5)cc34)N2)ccc1-n1cnc(C)c1 (single isomer, unassigned; (-)) [Example 221A, (−)-5-(5-cyclopropyl-1-methyl-1H-indol-3-yl)-3-(6-methoxy-5-(4-methyl-1H-imidazol-1-yl)pyridin-2-yl)-5,6-dihydro-4H-1,2,4-oxadiazine]",59.9,–
"COc1nc(C2=NOCC(c3ccccc3Cl)N2)ccc1-n1cnc(C)c1 (single isomer, unassigned) [Example 136B, 5-(2-chlorophenyl)-3-(6-methoxy-5-(4-methyl-1H-imidazol-1-yl)pyridin-2-yl)-5,6-dihydro-4H-1,2,4-oxadiazine]",775,–
"COc1nc(C2=NOCC(C3CC3)N2)ccc1-n1cnc(C)c1 (single isomer, unassigned) [Example 134B, 5-cyclopropyl-3-(6-methoxy-5-(4-methyl-1H-imidazol-1-yl)pyridin-2-yl)-5,6-dihydro-4H-1,2,4-oxadiazine]",1100,–
"COc1nc(C2=NOCC(c3cc4cccc(C)c4o3)N2C)ccc1-n1cnc(C)c1 (single isomer, unassigned; (+)) [Example 23, (+)-3-(6-Methoxy-5-(4-methyl-1H-imidazol-1-yl)pyridin-2-yl)-4-methyl-5-(7-methylbenzofuran-2-yl)-5,6-dihydro-4H-1,2,4-oxadiazine]",–,61.9
"COc1nc(C2=NOCC(c3ccc4ncsc4c3)N2)ccc1-n1cnc(C)c1 (single isomer, unassigned; (-)) [Example 183A, (−)-5-(benzo [d]thiazol-6-yl)-3-(6-methoxy-5-(4-methyl-1H-imidazol-1-yl)pyridin-2-yl)-5,6-dihydro-4H-1,2,4-oxadiazine]",1760,–
"COc1nc(C2=NOCC(c3cc4ccc(C5CC5)cc4o3)N2)ccc1-n1cnc(C)c1 (single isomer, unassigned; (-)) [Example 236A, (−)-5-(6-cyclopropylbenzofuran-2-yl)-3-(6-methoxy-5-(4-methyl-1H-imidazol-1-yl)pyridin-2-yl)-5,6-dihydro-4H-1,2,4-oxadiazine]",397,–
"COc1nc(C2=NOCC(C3CCC(F)(F)CC3)N2)ccc1-n1cnc(C)c1 (single isomer, unassigned; (+)) [Example 139B, (+)-5-(4,4-difluorocyclohexyl)-3-(6-methoxy-5-(4-methyl-1H-imidazol-1-yl)pyridin-2-yl)-5,6-dihydro-4H-1,2,4-oxadiazine]",–,201
"COc1nc(C2=NOCC(c3cc4ccccc4o3)N2)ccc1-n1cnc(C)n1 (single isomer, unassigned; (+)) [Example 31B, (+)-5-(Benzofuran-2-yl)-3-(6-methoxy-5-(3-methyl-1H-1,2,4-triazol-1-yl)pyridin-2-yl)-5,6-dihydro-4H-1,2,4-oxadiazine]",636,–
"COc1nc(C2=NOCC(c3cscn3)N2)ccc1-n1cnc(C)c1 (single isomer, unassigned; (-)) [Example 156B, (−)-3-(6-methoxy-5-(4-methyl-1H-imidazol-1-yl)pyridin-2-yl)-5-(thiazol-4-yl)-5,6-dihydro-4H-1,2,4-oxadiazine]",> 3000,–

# Continued by falling EC50, values first:
EC50 [nM],EC50 (Homo sapiens) [nM],Compound
47.1,–,"COc1nc(C2=NOCC(c3cn(C)c4ccc(Cl)c(F)c34)N2)ccc1-n1cnc(C)c1 (single isomer, unassigned; (-)) [Example 237B, (−)-5-(5-chloro-4-fluoro-1-methyl-1H-indol-3-yl)-3-(6-methoxy-5-(4-methyl-1H-imidazol-1-yl)pyridin-2-yl)-5,6-dihydro-4H-1,2,4-oxadiazine]"
27,–,"COc1nc(C2=NOCC(c3cc4ccccc4n3C)N2)ccc1-n1cnc(C)c1 (single isomer, unassigned; (+)) [Example 205B, (+)-3-(6-methoxy-5-(4-methyl-1H-imidazol-1-yl)pyridin-2-yl)-5-(1-methyl-1H-indol-2-yl)-5,6-dihydro-4H-1,2,4-oxadiazine]"
23.2,–,"COc1nc(C2=NOCC(c3ccc(F)c(Cl)c3)N2)ccc1-n1cnc(C)c1 (single isomer, unassigned; (+)) [Example 108B, (+)-5-(3-chloro-4-fluorophenyl)-3-(6-methoxy-5-(4-methyl-1H-imidazol-1-yl)pyridin-2-yl)-5,6-dihydro-4H-1,2,4-oxadiazine]"
23,–,"COc1nc(C2=NOCC(c3cccc(C4CC4)c3)N2)ccc1-n1cnc(C)c1 (single isomer, unassigned; (+)) [Example 127B, (+)-5-(3-cyclopropylphenyl)-3-(6-methoxy-5-(4-methyl-1H-imidazol-1-yl)pyridin-2-yl)-5,6-dihydro-4H-1,2,4-oxadiazine]"
22.9,–,"COc1nc(C2=NOCC(c3ccc(Cl)c(F)c3)N2)ccc1-n1cnc(C)c1 (single isomer, unassigned; (+)) [Example 106B, (+)-5-(4-chloro-3-fluorophenyl)-3-(6-methoxy-5-(4-methyl-1H-imidazol-1-yl)pyridin-2-yl)-5,6-dihydro-4H-1,2,4-oxadiazine]"
22.5,–,"COc1nc(C2=NOCC(c3cn(C(C)C)c4cccc(F)c34)N2)ccc1-n1cnc(C)c1 (single isomer, unassigned; (+)) [Example 196A, (+)-5-(4-fluoro-1-isopropyl-1H-indol-3-yl)-3-(6-methoxy-5-(4-methyl-1H-imidazol-1-yl)pyridin-2-yl)-5,6-dihydro-4H-1,2,4-oxadiazine]"
18.5,–,"COc1nc(C2=NOCC(c3cn(C)c4ccc(C#N)cc34)N2)ccc1-n1cnc(C)c1 (single isomer, unassigned; (+)) [Example 245B, (+)-3-(3-(6-methoxy-5-(4-methyl-1H-imidazol-1-yl)pyridin-2-yl)-5,6-dihydro-4H-1,2,4-oxadiazin-5-yl)-1-methyl-1H-indole-5-carbonitrile]"
18.5,–,"COc1nc(C2=NOCC(c3cccc(OC(F)(F)F)c3)N2)ccc1-n1cnc(C)c1 (single isomer, unassigned; (+)) [Example 242B, (+)-3-(6-methoxy-5-(4-methyl-1H-imidazol-1-yl)pyridin-2-yl)-5-(3-(trifluoromethoxy)phenyl)-5,6-dihydro-4H-1,2,4-oxadiazine]"
5.1,–,"COc1nc(C2=NOCC(c3nn(C)c4ccc(C(F)(F)F)cc34)N2)ccc1-n1cnc(C)c1 (single isomer, unassigned; (+)) [Example 241B, (+)-3-(6-methoxy-5-(4-methyl-1H-imidazol-1-yl)pyridin-2-yl)-5-(1-methyl-5-(trifluoromethyl)-1H-indazol-3-yl)-5,6-dihydro-4H-1,2,4-oxadiazine]"
5,–,"COc1nc(C2=NOCC(c3cn(C)c4ccc(Cl)c(F)c34)N2)ccc1-n1cnc(C)c1 (single isomer, unassigned; (+)) [Example 237A, (+)-5-(5-chloro-4-fluoro-1-methyl-1H-indol-3-yl)-3-(6-methoxy-5-(4-methyl-1H-imidazol-1-yl)pyridin-2-yl)-5,6-dihydro-4H-1,2,4-oxadiazine]"
3.9,–,"CCn1cc(C2CON=C(c3ccc(-n4cnc(C)c4)c(OC)n3)N2)c2cc(Cl)c(F)cc21 (single isomer, unassigned; (+)) [Example 73B, (+)-5-(5-chloro-1-ethyl-6-fluoro-1H-indol-3-yl)-3-(6-methoxy-5-(4-methyl-1H-imidazol-1-yl)pyridin-2-yl)-5,6-dihydro-4H-1,2,4-oxadiazine]"
3.4,–,"COc1nc(C2=NOCC(c3cn(C)c4cc(C(F)(F)F)ccc34)N2)ccc1-n1cnc(C)c1 (single isomer, unassigned; (+)) [Example 197A, (+)-3-(6-methoxy-5-(4-methyl-1H-imidazol-1-yl)pyridin-2-yl)-5-(1-methyl-6-(trifluoromethyl)-1H-indol-3-yl)-5,6-dihydro-4H-1,2,4-oxadiazine]"
